Assay results reported in patent publication US10517889B2, “Modulators of SMAD7 expression” (Ionis Pharmaceuticals, Inc., priority 2017, dated 2019).
Several values for one entry are separate records, joined by “and”; a condition that tells them apart may be missing. Equal values may be shown once.

Columns and labels:
[1] = tested on: murine Smad7 mRNA; assay: Dose-dependent inhibition of murine Smad7 mRNA in bEND cells, electroporation (Example 5, Study 2); type: cell-based, mouse; details: electroporation; for % inhibition of SMAD7 mRNA expression: approximately 16 hours
Protocol: Many of the Ionis designed oligonucleotides as well as ION 736697/Mongersen are complementary to mouse Smad7 mRNA. […] After a treatment period of approximately 16 hours, the cells were washed and lyzed and RNA on 384-well Pall plates with DNase I treatment. Smad7 mRNA levels were measured by quantitative real-time PCR. Primer probe set RTS1114 (forward sequence […], designated herein as SEQ ID NO: 8; reverse sequence […], designated herein as SEQ ID NO: 9; probe sequence […], designated herein as SEQ ID NO: 10) was used to measure murine Smad7 mRNA levels. Smad7 mRNA levels were adjusted according to total RNA content, as measured by RIBOGREEN®. Results are presented as percent inhibition of Smad7 mRNA expression, relative to untreated control cells.
Many of the Ionis oligonucleotides had greater potency than ION 736697/Mongersen.

[2] = Plasma chemistry markers after subcutaneous administration in CD-1 mice (Example 6); type: in vivo; details: CD-1 mice plasma at day 46; 50 mg/kg subcutaneously twice a week for 7 weeks
Protocol: CD-1® mice (Charles River, Mass.) are a multipurpose mice model, frequently utilized for safety and efficacy testing. The mice were treated with Ionis human SMAD7 antisense oligonucleotides selected from studies described above and evaluated.
Groups of 8-9 week old male CD-1 mice were injected subcutaneously twice a week for 7 weeks with 50 mg/kg of Ionis oligonucleotides (100 mg/kg/week dose). Each group contained 4 mice. One group of male CD-1 mice was injected subcutaneously twice a week for 7 weeks with PBS. […]

[3] = Organ weights after subcutaneous administration in CD-1 mice (Example 6); type: in vivo; details: end of study, 50 mg/kg subcutaneously twice a week for 7 weeks
Protocol: (§1) Groups of 8-9 week old male CD-1 mice were injected subcutaneously twice a week for 7 weeks with 50 mg/kg of Ionis oligonucleotides (100 mg/kg/week dose). Each group contained 4 mice. One group of male CD-1 mice was injected subcutaneously twice a week for 7 weeks with PBS. Plasma was collected for analysis on day 28.
Ionis SMAD7 oligonucleotides that caused any changes in organ weights outside the expected range for antisense oligonucleotides were excluded from further studies.

[4] = Hematology assays after subcutaneous administration in CD-1 mice (Example 6); type: in vivo; design: RBC / Eosinophils / Monocytes: unit not given here; details: 50 mg/kg subcutaneous twice weekly for 7 weeks; for Basophils: n.d. = below detection levels
Protocol: as §1
Blood obtained from all mouse groups was measured by an ADVIA2120i hematology analyzer (Siemens, USA) for measurements of the various blood cells, as well as other hematology markers.

[5] = tested on: mouse Smad7 mRNA; assay: Murine Smad7 mRNA expression after oral administration in BALB/c mice (Example 11); type: in vivo; details: 500 mg/kg/day oral for 3 weeks, 24 hours after last dose
Protocol: The objective of this study was to evaluate the efficacy of Ionis SMAD7 antisense oligonucleotides in BALB/c mice following daily oral administration. The Ionis oligonucleotides are cross-reactive with mouse Smad7 mRNA.
Groups of BALB/c mice were orally administered 500 mg/kg/day for 3 weeks of human Smad7 oligonucleotides, ION 790615, ION 798781, or ION 830025, or mouse Smad7 oligonucleotide, ION 772797 (a 3-10-3 cEt gapmer with phosphorothioate backbone and sequence […]; designated herein as SEQ ID NO: 2743). One group of mice was orally administered PBS daily for 3 weeks. Each group contained 4 mice.
To evaluate the efficacy of the oligonucleotides, murine Smad7 mRNA expression in the liver, kidneys, duodenum, ileum, and colon was measured using primer probe set RTS1114.

[6] = Pharmacokinetics: oligonucleotide concentration in the plasma on day 28 after oral gavage in beagle dogs (Example 12); type: in vivo; details: 200 mg oral gavage
Protocol: There were 4 animals per group.
Plasma concentrations of Ionis oligonucleotides were also measured on Day 28 at various time points.

[7] = Plasma chemistry markers after oral gavage in beagle dogs (Example 12); details: 200 mg oral gavage for 4 weeks, plasma at day 30
Protocol: The study was conducted to evaluate the tolerability and pharmacodynamics of select human SMAD7 antisense oligonucleotides in beagle dogs following 4 weeks of treatment. The dogs were administered oligonucleotides by oral gavage.
Groups of 24-25 week old male beagle dogs were administered 200 mg Ionis human SMAD7 oligonucleotide by oral gavage once a week for 4 weeks. There were 4 animals per group. A control group of dogs received oral administration of distilled water. Dogs were sacrificed on day 30 approximately 48 hours after the final dose and organs and plasma were harvested for further analysis.
To evaluate the effect of Ionis SMAD7 oligonucleotides on liver and kidney function, approximately 1.5 mL of blood samples were collected and put into tubes without anticoagulant for serum separation. The tubes were kept at room temperature for a minimum of 90 min and then centrifuged (approximately 3,000 rpm for 10 min) to obtain serum. Plasma levels of transaminases, albumin, bilirubin, and BUN were measured using an automated clinical chemistry analyzer (Toshiba 200FR Neo chemistry analyzer, Toshiba Co., Japan).

[8] = tested on: human SMAD7 mRNA; assay: Dose-dependent inhibition of human SMAD7 mRNA expression in Hep3B cells (Example 3, Study 1 and 2); type: cell-based; details: electroporation; for % inhibition of SMAD7 mRNA expression: approximately 16 hours; for IC50: Study 2 (740-20000 nM)
Method in brief: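 Hep3B cells, 20,000 per well, electroporated with antisense oligonucleotide at 0.31, 1.25, 5.00 or 20.00 μM (first series) or 0.74, 2.22, 6.67 or 20.00 μM (second series). After ~16 h, SMAD7 mRNA measured by RT-qPCR (RTS5062), normalised to RIBOGREEN total RNA. Percent inhibition vs untreated cells; IC50 derived.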

[9] = 740 nM, Study 2, relative to untreated control cells

Substance: 790615 (CCAATGAGAATGCTTC; 3-10-3 cEt gapmer, further chemistry not given here) [compound 790615]
- % inhibition of SMAD7 mRNA expression ([1]; 0.25 μM): 7%
- % inhibition of SMAD7 mRNA expression ([1]; 0.74 μM): 18%
- % inhibition of SMAD7 mRNA expression ([1]; 2.22 μM): 37%
- % inhibition of SMAD7 mRNA expression ([1]; 6.67 μM): 47%
- % inhibition of SMAD7 mRNA expression ([1]; 20.00 μM): 64%
- IC50 [1]: 7.3 µM
- ALT [2]: 65 IU/L
- AST [2]: 97 IU/L
- Albumin [2]: 2.2 g/dL
- BUN [2]: 22 mg/dL
- Organ weights, Kidneys [3]: 0.6 g
- Organ weights, Liver [3]: 2.0 g
- Organ weights, Spleen [3]: 0.2 g
- Eosinophils [4]: 2.5
- Hematocrit [4]: 46.2%
- Hemoglobin [4]: 15.2 g/dL
- Lymphocytes [4]: 82.8%
- MCH [4]: 14.7 pg
- MCHC [4]: 32.8 g/dL
- MCV [4]: 44.8 fL
- Monocytes [4]: 5.0
- Neutrophils [4]: 9.7%
- RBC [4]: 10.3
- Reticulocytes [4]: 3.5%
- WBC [4]: 10.5 10^3/μL
- platelets [4]: 1055.8 10^3/μL
- Basophils [4]: 0.1 10^3/μL
- Mouse Smad7 mRNA expression (% inhibition), Colon [5]: 72 % inhibition
- Mouse Smad7 mRNA expression (% inhibition), Duodenum [5]: 54 % inhibition
- Mouse Smad7 mRNA expression (% inhibition), Ileum [5]: 0 % inhibition
- Mouse Smad7 mRNA expression (% inhibition), Kidney [5]: 41 % inhibition
- Mouse Smad7 mRNA expression (% inhibition), Liver [5]: 52 % inhibition
- Oligonucleotide concentration in the plasma on day 28 ([6]; 2 hr): 16.7 ng/mL
- Oligonucleotide concentration in the plasma on day 28 ([6]; 4 hr): 4.8 ng/mL
- Oligonucleotide concentration in the plasma on day 28 ([6]; 8 hr): 0.5 ng/mL
- Oligonucleotide concentration in the plasma on day 28 ([6]; 24 hr): 0.0 ng/mL
- ALT (% of control) [7]: 118 % of control
- AST (% of control) [7]: 147 % of control
- Albumin (% of control) [7]: 98 % of control
- BUN (% of control) [7]: 108 % of control
- Bilirubin (% of control) [7]: 102 % of control

Substance: 798781 (CGTAAGATTCACAGCA; 3-10-3 cEt gapmer, further chemistry not given here) [compound 798781]
- % inhibition of SMAD7 mRNA expression [8, 9]: 46%
- % inhibition of SMAD7 mRNA expression ([8]; 2220 nM, Study 2): 64%
- % inhibition of SMAD7 mRNA expression ([8]; 6670.0 nM, Study 2): 81%
- % inhibition of SMAD7 mRNA expression ([8]; 20000.0 nM, Study 2): 87%
- IC50 [8]: 2 µM
- % inhibition of SMAD7 mRNA expression ([1]; 0.25 μM): 0%
- % inhibition of SMAD7 mRNA expression ([1]; 0.74 μM): 0%
- % inhibition of SMAD7 mRNA expression ([1]; 2.22 μM): 20%
- % inhibition of SMAD7 mRNA expression ([1]; 6.67 μM): 33%
- % inhibition of SMAD7 mRNA expression ([1]; 20.00 μM): 51%
- IC50 [1]: 19.8 µM
- ALT [2]: 40 IU/L
- AST [2]: 66 IU/L
- Albumin [2]: 2.2 g/dL
- BUN [2]: 26 mg/dL
- Organ weights, Kidneys [3]: 0.6 g
- Organ weights, Liver [3]: 2.3 g
- Organ weights, Spleen [3]: 0.1 g
- Eosinophils [4]: 2.4
- Hematocrit [4]: 42.3%
- Hemoglobin [4]: 13.8 g/dL
- Lymphocytes [4]: 73.7%
- MCH [4]: 14.9 pg
- MCHC [4]: 32.6 g/dL
- MCV [4]: 45.8 fL
- Monocytes [4]: 5.2
- Neutrophils [4]: 18.8%
- RBC [4]: 9.3
- Reticulocytes [4]: 3.3%
- WBC [4]: 4.9 10^3/μL
- platelets [4]: 867.3 10^3/μL
- Mouse Smad7 mRNA expression (% inhibition), Colon [5]: 0 % inhibition
- Mouse Smad7 mRNA expression (% inhibition), Duodenum [5]: 47 % inhibition
- Mouse Smad7 mRNA expression (% inhibition), Ileum [5]: 0 % inhibition
- Mouse Smad7 mRNA expression (% inhibition), Kidney [5]: 12 % inhibition
- Mouse Smad7 mRNA expression (% inhibition), Liver [5]: 0 % inhibition
- Oligonucleotide concentration in the plasma on day 28 ([6]; 2 hr): 18.7 ng/mL
- Oligonucleotide concentration in the plasma on day 28 ([6]; 4 hr): 5.4 ng/mL
- Oligonucleotide concentration in the plasma on day 28 ([6]; 8 hr): 3.6 ng/mL
- Oligonucleotide concentration in the plasma on day 28 ([6]; 24 hr): 0.4 ng/mL
- ALT (% of control) [7]: 115 % of control
- AST (% of control) [7]: 114 % of control
- Albumin (% of control) [7]: 101 % of control
- BUN (% of control) [7]: 104 % of control
- Bilirubin (% of control) [7]: 114 % of control

Substance: 829994 (GGAGGCAGGGCCGCGA; 3-10-3 cEt gapmer, further chemistry not given here) [compound 829994]
- % inhibition of SMAD7 mRNA expression [8, 9]: 25%
- % inhibition of SMAD7 mRNA expression ([8]; 2220 nM, Study 2): 54%
- % inhibition of SMAD7 mRNA expression ([8]; 6670.0 nM, Study 2): 69%
- % inhibition of SMAD7 mRNA expression ([8]; 20000.0 nM, Study 2): 80%
- IC50 [8]: 1 µM
- ALT [2]: 65 IU/L
- AST [2]: 90 IU/L
- Albumin [2]: 2.9 g/dL
- BUN [2]: 25 mg/dL
- Organ weights, Kidneys [3]: 0.7 g
- Organ weights, Liver [3]: 2.6 g
- Organ weights, Spleen [3]: 0.3 g
- Eosinophils [4]: 1.3
- Hematocrit [4]: 36.6%
- Hemoglobin [4]: 12.0 g/dL
- Lymphocytes [4]: 79.4%
- MCH [4]: 15.5 pg
- MCHC [4]: 32.7 g/dL
- MCV [4]: 47.3 fL
- Monocytes [4]: 3.0
- Neutrophils [4]: 16.4%
- RBC [4]: 7.7
- Reticulocytes [4]: 3.7%
- WBC [4]: 5.0 10^3/μL
- platelets [4]: 841.3 10^3/μL

Substance: 830037 (antisense CTATTGGCTGATCTGG; 3-10-3 cEt gapmer, further chemistry not given here) [compound 830037]
- % inhibition of SMAD7 mRNA expression [8, 9]: 30%
- % inhibition of SMAD7 mRNA expression ([8]; 2220 nM, Study 2): 56%
- % inhibition of SMAD7 mRNA expression ([8]; 6670.0 nM, Study 2): 70%
- % inhibition of SMAD7 mRNA expression ([8]; 20000.0 nM, Study 2): 87%
- IC50 [8]: 3 µM
- % inhibition of SMAD7 mRNA expression ([1]; 0.25 μM): 0%
- % inhibition of SMAD7 mRNA expression ([1]; 0.74 μM): 6%
- % inhibition of SMAD7 mRNA expression ([1]; 2.22 μM): 1%
- % inhibition of SMAD7 mRNA expression ([1]; 6.67 μM): 0%
- % inhibition of SMAD7 mRNA expression ([1]; 20.00 μM): 0%
- IC50 [1]: > 20 µM

Substance: 830121 (AGAATCAAGCCCTGGC; 3-10-3 cEt gapmer, further chemistry not given here) [compound 830121]
- % inhibition of SMAD7 mRNA expression [8, 9]: 37% and 54%
- % inhibition of SMAD7 mRNA expression ([8]; 2220 nM, Study 2): 48% and 63%
- % inhibition of SMAD7 mRNA expression ([8]; 6670.0 nM, Study 2): 69% and 79%
- % inhibition of SMAD7 mRNA expression ([8]; 20000.0 nM, Study 2): 85% and 86%
- IC50 [8]: < 0.7 µM
- % inhibition of SMAD7 mRNA expression ([1]; 0.25 μM): 0%
- % inhibition of SMAD7 mRNA expression ([1]; 0.74 μM): 6%
- % inhibition of SMAD7 mRNA expression ([1]; 2.22 μM): 12%
- % inhibition of SMAD7 mRNA expression ([1]; 6.67 μM): 17%
- % inhibition of SMAD7 mRNA expression ([1]; 20.00 μM): 20%
- IC50 [1]: > 20 µM
- ALT [2]: 198 IU/L
- AST [2]: 151 IU/L
- Albumin [2]: 1.9 g/dL
- BUN [2]: 21 mg/dL
- Organ weights, Kidneys [3]: 0.6 g
- Organ weights, Liver [3]: 2.4 g
- Organ weights, Spleen [3]: 0.2 g
- Eosinophils [4]: 3.5
- Hematocrit [4]: 40.4%
- Hemoglobin [4]: 13.6 g/dL
- Lymphocytes [4]: 75.3%
- MCH [4]: 15.3 pg
- MCHC [4]: 33.6 g/dL
- MCV [4]: 45.5 fL
- Monocytes [4]: 5.1
- Neutrophils [4]: 15.8%
- RBC [4]: 8.9
- Reticulocytes [4]: 4.5%
- WBC [4]: 10.1 10^3/μL
- platelets [4]: 765.0 10^3/μL
- Basophils [4]: 0.3 10^3/μL
